Reference: article PMC9457259 (Proceedings of the National Academy of Sciences of the …, 2022)

Target: human voltage-gated proton channel hHv1 (Homo sapiens, UniProt Q96D96)
Assay: liposome proton flux assay
Type: biochemical

Sequence of human voltage-gated proton channel hHv1 (Q96D96 whole entry): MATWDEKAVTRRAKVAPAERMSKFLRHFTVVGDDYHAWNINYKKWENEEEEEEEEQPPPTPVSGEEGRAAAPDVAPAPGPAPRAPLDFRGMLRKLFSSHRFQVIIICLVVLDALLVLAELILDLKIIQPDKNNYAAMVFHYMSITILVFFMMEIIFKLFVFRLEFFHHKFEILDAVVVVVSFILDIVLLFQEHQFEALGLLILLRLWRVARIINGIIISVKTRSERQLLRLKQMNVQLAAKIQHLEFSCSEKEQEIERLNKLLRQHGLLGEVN

IC50: ~ 10 % (wt/wt, to total membrane lipids)
SMILES: CC(C)CCC[C@@H](C)[C@H]1CC[C@H]2[C@@H]3CC=C4C[C@@H](O)CC[C@]4(C)[C@H]3CC[C@]12C [cholesterol]
